We go through nine compounds from US20260209234A1, “SUBSTITUTED DIHYDROPYRROLO[3,4-D]PYRIMIDINE COMPOUNDS AND THEIR USE IN TREATING MEDICAL CONDITIONS” (Karuna Therapeutics, Inc., priority 2022, published 2026).

In one test the target is T1, hM4 receptors (Homo sapiens, UniProt P08173).
T1 construct: expressed in transfected cells; host or cells: CHO cells
T1 sequence (P08173 1-479): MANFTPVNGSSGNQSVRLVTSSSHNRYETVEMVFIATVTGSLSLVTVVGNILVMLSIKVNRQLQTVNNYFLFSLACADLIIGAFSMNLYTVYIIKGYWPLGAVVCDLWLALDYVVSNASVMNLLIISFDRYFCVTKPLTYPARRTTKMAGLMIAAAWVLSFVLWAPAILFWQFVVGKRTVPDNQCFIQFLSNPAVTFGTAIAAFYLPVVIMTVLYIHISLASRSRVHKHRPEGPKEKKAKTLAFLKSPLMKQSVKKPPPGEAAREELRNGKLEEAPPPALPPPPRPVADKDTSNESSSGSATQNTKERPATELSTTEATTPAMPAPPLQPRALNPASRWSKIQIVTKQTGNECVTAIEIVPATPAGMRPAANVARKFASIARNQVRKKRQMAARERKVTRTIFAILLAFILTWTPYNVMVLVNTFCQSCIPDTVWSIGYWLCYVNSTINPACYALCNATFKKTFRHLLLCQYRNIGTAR
The experiment in a line: Human M4 PAM pERK assay. It is filed as cell-based. The note with it: CHO cells expressing hM4; EC20 of acetylcholine (10 nM final); TR-FRET. In general terms: In TR-FRET formats the signal depends on donor and acceptor labels being close together.

A further test has as its target T2, rM4 receptors (Rattus norvegicus, UniProt P08485).
T2 construct: expressed in transfected cells; host or cells: CHO cells
T2 sequence (P08485 1-478): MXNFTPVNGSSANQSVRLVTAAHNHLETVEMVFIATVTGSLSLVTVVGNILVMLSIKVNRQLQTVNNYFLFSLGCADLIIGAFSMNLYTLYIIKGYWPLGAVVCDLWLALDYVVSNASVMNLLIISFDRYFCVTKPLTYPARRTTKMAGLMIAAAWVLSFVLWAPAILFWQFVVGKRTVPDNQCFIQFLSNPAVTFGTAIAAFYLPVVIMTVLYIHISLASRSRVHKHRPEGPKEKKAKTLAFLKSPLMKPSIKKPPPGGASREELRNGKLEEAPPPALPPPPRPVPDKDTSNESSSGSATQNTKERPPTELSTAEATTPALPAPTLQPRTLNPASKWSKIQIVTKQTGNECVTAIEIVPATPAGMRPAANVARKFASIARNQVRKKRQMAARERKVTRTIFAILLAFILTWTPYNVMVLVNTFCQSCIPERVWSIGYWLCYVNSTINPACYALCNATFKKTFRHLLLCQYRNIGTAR
As to the kind of experiment: Rat M4 PAM pERK assay. The format is cell-based. The note with it: CHO cells expressing rM4; EC20 of acetylcholine (10 nM final); TR-FRET.

A further test concerns the target T3, human M4 receptor (Homo sapiens, UniProt P08173).
T3 construct: expressed in transfected cells
T3 sequence (P08173 1-479): T1 sequence (P08173 1-479)
The experiment in a line: M4 GTPγS PAM assay. It is filed as biochemical. The note with it: membranes of CHO-K1 cells stably expressing human M4; EC20 acetylcholine 40 nM; 35S-GTP. As to the method: The M4 GTPγS PAM method was used. Membranes were prepared for GTPgS binding assays from CHO-K1 cells stably expressing human M4 receptor. Briefly, cells were grown in 5-layer cell culture flasks. Cells were washed with 50 mL of PBS and then dissociated with 0.05% trypsin. Dissociated cells were then collected by centrifugation at 650×g for 8 minutes at 4° C. Pellets were washed again in PBS by centrifugation and resuspended in 30 mL of 20 mM HEPES, 10 mM EDTA, pH 7.4. After sitting on ice for 30 min, membranes were collected by centrifugation at 50000×g for 15′ at 4° C., resuspended in 30 mL of 20 mM HEPES, 0.1 mM EDTA, pH 7.4 and collected again by centrifugation. Pellets were then washed twice by centrifugation in 30 mL of 20 mM HEPES, pH 7.4, and stored at −80° C. until the day of the assay. On the day of the assay, pellets were thawed on ice and resuspended in 1 mL of 20 mM HEPES, pH 7.4, 10 mM MgCl2, 100 mM NaCl using dounce homogenization. Membrane protein concentration is determined by BCA protein assay (Promega, Madison, WI) according to Promega guidelines.
On the day of the assay, serial dilutions of test PAM compounds were brought up in assay buffer (20 mM HEPES, 10 mM MgCl2, 100 mM NaCl) at 4× final assay concentration. […] of membrane homogenates (containing […] of membrane protein) were prepared in assay buffer supplemented with GDP at 4× final assay concentration (final assay concentration of GDP is 5 μM for M2 and 0.1 μM for M4) and dispensed into 96 well polypropylene, U-bottom Greiner plates. […] of vehicle or test PAM compound at 4× of final assay concentration diluted in the assay buffer were added to membrane and plates are incubated for 10-15 minutes at room temperature with gentle shaking. Then, […] of EC20 acetylcholine in assay buffer at 4× final assay concentration was added to assay plates (EC20 final assay concentrations was 40 nM for human M4).
Plates were then incubated, with shaking, for an additional 10-15 minutes. […] of 0.4 nM 35S-GTP (Perkin Elmer, Waltham, MA) in assay buffer was added to assay mixtures. The binding reaction is left on the shaker for 1 hour at room temperature. Membranes in assay reactions were then transferred to GF/C filter plates (Unifilter, Perkin Elmer) and washed three times using a FilterMate Harvester (Perkin Elmer) with cold assay buffer containing no GDP. Filter plates were then dried at 40° C. overnight followed by the addition of […] of Beta Plate Scintillation liquid. Plates are top and bottom sealed before being read on TopCount scintillation counter (Perkin Elmer, Waltham, MA).

In general, EC50 refers to the concentration at which the effect is half-maximal. High values mean a less potent agent, low ones a more potent agent. Take `COc1nc(C)nc2c1CN(C(=O)CC1CN(c3ccnc(C(F)(F)F)c3)C1)C2C` (single isomer, unassigned) [Compound I-63, 1-(4-Methoxy-2,7-dimethyl-5,7-dihydro-6H-pyrrolo[3,4-d]pyrimidin-6-yl)-2-(1-(2-(trifluoromethyl)pyridin-4-yl)azetidin-3-yl)ethan-1-one]: the EC50 at hM4 receptors was 500 to 2000 nM; at rM4 receptors, at least 2000 nM; at human M4 receptor it was 500 to 2000 nM.

As for `COc1nc(C#N)nc2c1CN(C(=O)CC1CN(c3ccnc(C(F)(F)F)c3)C1)C2` [Compound I-2, 4-Methoxy-6-(2-(1-(2-(trifluoromethyl)pyridin-4-yl)azetidin-3-yl)acetyl)-6,7-dihydro-5H-pyrrolo[3,4-d]pyrimidine-2-carbonitrile], the EC50 is at most 100 nM at hM4 receptors, 500 to 2000 nM on rM4 receptors and at most 100 nM on human M4 receptor.

Consider `COc1nc(C#N)nc2c1C(C)N(C(=O)CC1CN(c3ccnc(C4CC4)c3)C1)C2` (single isomer, unassigned) [Compound I-11, 6-(2-(1-(2-Cyclopropylpyridin-4-yl)azetidin-3-yl)acetyl)-4-methoxy-5-methyl-6,7-dihydro-5H-pyrrolo[3,4-d]pyrimidine-2-carbonitrile], for which the EC50 on hM4 receptors, on rM4 receptors and on human M4 receptor was at least 2000 nM throughout.

For `COc1nc(C#N)nc2c1C(C)N(C(=O)CC1CN(c3ccc(C4CC4)c(F)c3)C1)C2` (single isomer, unassigned) [Compound I-22, 6-(2-(1-(4-Cyclopropyl-3-fluorophenyl)azetidin-3-yl)acetyl)-4-methoxy-5-methyl-6,7-dihydro-5H-pyrrolo[3,4-d]pyrimidine-2-carbonitrile], the EC50 on hM4 receptors, on rM4 receptors and at human M4 receptor was 100 to 500 nM throughout.

`COc1nc(C#N)nc2c1C(C)N(C(=O)CC1CN(c3cccnc3)C1)C2` (single isomer, unassigned) [Compound I-7, 4-Methoxy-5-methyl-6-(2-(1-(pyridin-3-yl)azetidin-3-yl)acetyl)-6,7-dihydro-5H-pyrrolo[3,4-d]pyrimidine-2-carbonitrile]: the EC50 on hM4 receptors, on rM4 receptors and on human M4 receptor was at least 2000 nM in each case.

Turning to `COc1nc2c(c(OC)n1)C(C)N(C(=O)CC1CN(c3ccc(C#N)cc3)C1)C2` (single isomer, unassigned) [Compound I-66, 4-(3-(2-(2,4-dimethoxy-5-methyl-5,7-dihydro-6H-pyrrolo[3,4-d]pyrimidin-6-yl)-2-oxoethyl)azetidin-1-yl)benzonitrile], the EC50 is at most 100 nM on hM4 receptors, 100 to 500 nM on rM4 receptors and 500 to 2000 nM at human M4 receptor.

Consider `COc1nc(C#N)nc2c1C(C)N(C(=O)CC1CN(c3ccnc(OC4CC4)c3)C1)C2` (single isomer, unassigned) [Compound I-13, 6-(2-(1-(2-Cyclopropoxypyridin-4-yl)azetidin-3-yl)acetyl)-4-methoxy-5-methyl-6,7-dihydro-5H-pyrrolo[3,4-d]pyrimidine-2-carbonitrile], for which the concentration giving a half-maximal response (EC50) on hM4 receptors is at least 2000 nM; on rM4 receptors, at least 2000 nM; at human M4 receptor it was 500 to 2000 nM.

For the compound `COc1nc(OC)c2c(n1)C(C)N(C(=O)CC1CN(c3ccnc(C(F)(F)F)c3)C1)C2` (single isomer, unassigned) [Compound I-70, 1-(2,4-Dimethoxy-7-methyl-5,7-dihydro-6H-pyrrolo[3,4-d]pyrimidin-6-yl)-2-(1-(2-(trifluoromethyl)pyridin-4-yl)azetidin-3-yl)ethan-1-one], the EC50 on hM4 receptors was 500 to 2000 nM; on rM4 receptors, at least 2000 nM; on human M4 receptor, at most 100 nM.

Consider `COc1nc(C#N)nc2c1C(C)N(C(=O)CC1CN(c3ccnc(C(C)(C)O)c3)C1)C2` (single isomer, unassigned) [Compound I-30, 6-(2-(1-(2-(2-Hydroxypropan-2-yl)pyridin-4-yl)azetidin-3-yl)acetyl)-4-methoxy-5-methyl-6,7-dihydro-5H-pyrrolo[3,4-d]pyrimidine-2-carbonitrile], for which the EC50 at hM4 receptors was at most 100 nM; on rM4 receptors, 100 to 500 nM; at human M4 receptor, 100 to 500 nM.
